Experimental data as given in paper PMC10549826 (Antiviral research, 2023).

Target: A/Victoria/361/2011 NA, wild-type sequence Q136, T148, R150, T439 (recombinant PR8-based A(H3N2) virus) (Influenza A virus, UniProt G9LQ08)
Format: biochemical

CCC(CC)[C@H](NC(C)=O)[C@@H]1[C@H](O)[C@@H](C(=O)O)C[C@H]1N=C(N)N [Peramivir, peramivir]
IC50: 0.07 ± 0.01 nM
